According to patent publication US20150225404A1, “PYRIDINE DERIVATIVE AND MEDICINE” (NIPPON SHINYAKU CO., LTD., priority 2012, published 2015):
Where a name gives a salt, the structure may show the parent alone.

Target: T1, human mGluR5 (Homo sapiens, UniProt P41594)
T1 construct: expressed in transfected cells
Assay: Experiment for receptor function of mGluR5 (Ca2+-dependent fluorescence, FLIPR, CHO-K1 cells stably expressing human mGluR5)
Assay type: cell-based
Conditions: L-glutamic acid 10 μM, Fluo-4 fluorescence
Experimental: Stable expression cells in which the human mGluR5 gene had been introduced into a Chinese hamster ovary cell (CHO-K1) were used for evaluation. The cells were suspended in a growth medium (MEM-α (D8042, available from Sigma) containing 10% inactivated FBS (Cat. No. 171012, available from CCB) and 2 mM glutamax (Cat. No. 35050, available from GIBCO)) and seeded on a black clear-bottom 96-well plate at 100,000 cells per well. One day after seeding, the medium was replaced by a medium (Hanks' balanced salt solution (HBSS buffer solution) (20 mM HEPES, 2.5 mM probencide (165-15472, available from Wako Pure Chemical Industries, Ltd.), and 10×HBSS (14065-056, available from Gibco) diluted 10 times, pH 7.4)) containing a calcium-sensitive dye Fluo-4 AM at a final concentration of […] (F312, available from Dojindo Laboratories) and Pluronic F-127 at a final concentration of 0.0145% (P-2443, available from Sigma), followed by incubation at 37° C. for one hour, thereby loading Fluo-4 AM into the cells.
Subsequently, the cells were washed twice with an HBSS buffer solution, to which was subsequently added the same buffer solution. Twenty minutes thereafter, the plate was transferred into a fluorescence screening system (FLIPR TETRA, available from Molecular Devices, LLC) and measured for a Ca^2+-dependent fluorescence change in the cells.
First of all, a fluorescence baseline was measured, and thereafter, fluorescence measurement was performed for 2 minutes while adding a test substance, an excessive amount of 6-methyl-2-(phenylethynyl)pyridine (hereinafter referred to as “MPEP”) (final concentration: 10 μM), or the medium. Thereafter, fluorescence measurement was carried out for one minute while adding L-glutamic acid (final concentration: 10 μM).
While taking a fluorescence intensity caused by L-glutamic acid as 100% and a fluorescence intensity caused by L-glutamic acid in the presence of MPEP as 0%, respectively, function inhibitory activity against human mGluR5 was evaluated from the fluorescence intensity caused by L-glutamic acid in the presence of the test substance at each concentration, and an IC50 value was estimated according to a logistic equation (SAS System).

T1 sequence (P41594 21-1212): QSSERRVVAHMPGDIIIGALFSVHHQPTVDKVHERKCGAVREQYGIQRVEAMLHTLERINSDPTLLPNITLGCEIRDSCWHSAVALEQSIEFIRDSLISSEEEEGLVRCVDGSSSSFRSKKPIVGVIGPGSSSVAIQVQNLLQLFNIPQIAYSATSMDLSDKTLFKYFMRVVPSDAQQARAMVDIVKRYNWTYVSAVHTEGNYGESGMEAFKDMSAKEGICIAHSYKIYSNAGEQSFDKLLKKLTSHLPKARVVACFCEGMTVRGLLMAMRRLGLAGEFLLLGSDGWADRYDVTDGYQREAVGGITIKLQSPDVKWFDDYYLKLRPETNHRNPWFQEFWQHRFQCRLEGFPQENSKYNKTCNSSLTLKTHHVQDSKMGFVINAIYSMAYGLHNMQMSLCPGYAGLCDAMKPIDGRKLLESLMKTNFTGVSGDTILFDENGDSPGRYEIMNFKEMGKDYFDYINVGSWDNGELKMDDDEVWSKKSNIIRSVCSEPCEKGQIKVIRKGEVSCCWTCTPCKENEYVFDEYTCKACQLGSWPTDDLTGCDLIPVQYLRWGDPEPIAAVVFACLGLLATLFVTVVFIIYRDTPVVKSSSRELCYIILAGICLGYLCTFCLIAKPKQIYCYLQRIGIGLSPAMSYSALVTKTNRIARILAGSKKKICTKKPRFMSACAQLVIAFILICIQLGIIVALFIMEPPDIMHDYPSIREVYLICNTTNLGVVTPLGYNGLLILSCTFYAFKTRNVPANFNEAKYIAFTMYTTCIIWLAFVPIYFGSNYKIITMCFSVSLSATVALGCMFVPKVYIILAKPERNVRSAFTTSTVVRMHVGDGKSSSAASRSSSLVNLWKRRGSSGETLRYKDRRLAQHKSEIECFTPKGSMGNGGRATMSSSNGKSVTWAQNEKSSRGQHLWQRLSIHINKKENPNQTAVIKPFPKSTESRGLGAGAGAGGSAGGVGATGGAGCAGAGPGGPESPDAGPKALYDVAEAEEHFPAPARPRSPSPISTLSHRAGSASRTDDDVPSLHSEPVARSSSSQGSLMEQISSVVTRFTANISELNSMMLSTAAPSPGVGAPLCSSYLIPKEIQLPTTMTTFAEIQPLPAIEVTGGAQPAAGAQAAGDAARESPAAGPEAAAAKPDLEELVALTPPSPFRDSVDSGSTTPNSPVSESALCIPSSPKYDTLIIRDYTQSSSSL

SMILES	IC50 [µM]
c1ccc(COc2cc(-c3cnccn3)c3c(n2)CCCC3)nc1 [Example 194, 4-(Pyrazin-2-yl)-2-(pyridin-2-ylmethoxy)-5,6,7,8-tetrahydroquinoline hydrochloride]	0.0114
Clc1cncc(-c2cc(OCc3ccccn3)nc3c2CCCC3)n1 [Example 195, 4-(6-Chloropyrazin-2-yl)-2-(pyridin-2-ylmethoxy)-5,6,7,8-tetrahydroquinoline]	0.0243
Clc1cnc(-c2cc(OCc3ccccn3)nc3c2CCCC3)cn1 [Example 196, 4-(5-Chloropyrazin-2-yl)-2-(pyridin-2-ylmethoxy)-5,6,7,8-tetrahydroquinoline hydrochloride]	0.17
Clc1nccnc1-c1cc(OCc2ccccn2)nc2c1CCCC2 [Example 197, 4-(3-Chloropyrazin-2-yl)-2-(pyridin-2-ylmethoxy)-5,6,7,8-tetrahydroquinoline hydrochloride]	0.0937
Fc1cncc(-c2cc(OCc3ccccn3)nc3c2CCCC3)n1 [Example 199, 4-(6-Fluoropyrazin-2-yl)-2-(pyridin-2-ylmethoxy)-5,6,7,8-tetrahydroquinoline hydrochloride]	0.0245
Fc1nccnc1-c1cc(OCc2ccccn2)nc2c1CCCC2 [Example 200, 4-(3-Fluoropyrazin-2-yl)-2-(pyridin-2-ylmethoxy)-5,6,7,8-tetrahydroquinoline hydrochloride]	0.144
Cc1cncc(-c2cc(OCc3ccccn3)nc3c2CCCC3)n1 [Example 201, 4-(6-Methylpyrazin-2-yl)-2-(pyridin-2-ylmethoxy)-5,6,7,8-tetrahydroquinoline]	0.0362
CCc1cncc(-c2cc(OCc3ccccn3)nc3c2CCCC3)n1 [Example 202, 4-(6-Ethylpyrazin-2-yl)-2-(pyridin-2-ylmethoxy)-5,6,7,8-tetrahydroquinoline]	0.043
OCc1cncc(-c2cc(OCc3ccccn3)nc3c2CCCC3)n1 [Example 204, {6-[2-(Pyridin-2-ylmethoxy)-5,6,7,8-tetrahydroquinolin-4-yl]pyrazin-2-yl}methanol]	0.23
COc1cncc(-c2cc(OCc3ccccn3)nc3c2CCCC3)n1 [Example 205, 4-(6-Methoxypyrazin-2-yl)-2-(pyridin-2-ylmethoxy)-5,6,7,8-tetrahydroquinoline hydrochloride]	0.093
Nc1cncc(-c2cc(OCc3ccccn3)nc3c2CCCC3)n1 [Example 206, 6-[2-(Pyridin-2-ylmethoxy)-5,6,7,8-tetrahydroquinolin-4-yl]pyrazin-2-amine hydrochloride]	0.0365
Nc1cnc(-c2cc(OCc3ccccn3)nc3c2CCCC3)cn1 [Example 207, 5-[2-(Pyridin-2-ylmethoxy)-5,6,7,8-tetrahydroquinolin-4-yl]pyrazin-2-amine]	0.346
CNc1cncc(-c2cc(OCc3ccccn3)nc3c2CCCC3)n1 [Example 208, N-Methyl-6-[2-(pyridin-2-ylmethoxy)-5,6,7,8-tetrahydroquinolin-4-yl]pyrazin-2-amine hydrochloride]	0.125
Fc1ccnc(-c2cc(OCc3ccccn3)nc3c2CCCC3)c1 [Example 223, 4-(4-Fluoropyridin-2-yl)-2-(pyridin-2-ylmethoxy)-5,6,7,8-tetrahydroquinoline]	0.0473
c1ccc(COc2cc(-c3cncs3)c3c(n2)CCCC3)nc1 [Example 224, 2-(Pyridin-2-ylmethoxy)-4-(1,3-thiazol-5-yl)-5,6,7,8-tetrahydroquinoline]	0.0256
Cc1ncc(-c2cc(OCc3ccccn3)nc3c2CCCC3)s1 [Example 225, 4-(2-Methyl-1,3-thiazol-5-yl)-2-(pyridin-2-ylmethoxy)-5,6,7,8-tetrahydroquinoline hydrochloride]	0.102
c1ccc(COc2cc(-c3cccnc3)c3c(n2)CCCCC3)nc1 [Example 232, 4-(Pyridin-3-yl)-2-(pyridin-2-ylmethoxy)-6,7,8,9-tetrahydro-5H-cyclohepta[b]pyridine]	0.0289
c1ccc(COc2cc(-c3cnccn3)c3c(n2)CCCCC3)nc1 [Example 234, 4-(Pyrazin-2-yl)-2-(pyridin-2-ylmethoxy)-6,7,8,9-tetrahydro-5H-cyclohepta[b]pyridine hydrochloride]	0.0414

SMILES	IC50 [µM]
C=C1CCc2c(-c3cncnc3)cc(OCc3ccccn3)nc21 [Example 237, 7-Methylidene-2-(pyridin-2-ylmethoxy)-4-(pyrimidin-5-yl)-6,7-dihydro-5H-cyclopenta[b]pyridine]	0.0345
CCC1CCc2c(-c3cncnc3)cc(OCc3ccccn3)nc21 (stereo not drawn) [Example 240, 7-Ethyl-2-(pyridin-2-ylmethoxy)-4-(pyrimidin-5-yl)-6,7-dihydro-5H-cyclopenta[b]pyridine]	0.024
N#Cc1cccc(COc2cc(-c3cccnc3)c3c(n2)CCC3)c1 [Example 245, 3-({[4-(Pyridin-3-yl)-6,7-dihydro-5H-cyclopenta[b]pyridin-2-yl]oxy}methyl)benzonitrile]	0.039
N#Cc1ccc(COc2cc(-c3cncc(CO)c3)c3c(n2)CCC3)cc1 [Example 247, 4-[({4-[5-(Hydroxymethyl)pyridin-3-yl]-6,7-dihydro-5H-cyclopenta[b]pyridin-2-yl}oxy)methyl]benzonitrile]	0.052
OCc1cncc(-c2cc(OCc3ccc(F)cc3)nc3c2CCC3)c1 [Example 248, (5-{2-[(4-Fluorobenzyl)oxy]-6,7-dihydro-5H-cyclopenta[b]pyridin-4-yl}pyridin-3-yl)methanol]	0.095
OCc1cncc(-c2cc(OCc3cccc(F)c3)nc3c2CCC3)c1 [Example 249, (5-{2-[(3-Fluorobenzyl)oxy]-6,7-dihydro-5H-cyclopenta[b]pyridin-4-yl}pyridin-3-yl)methanol]	0.053
N#Cc1ccc(COc2cc(-c3cncc(F)c3)c3c(n2)CCC3)nc1 [Example 250, 6-({[4-(5-Fluoropyridin-3-yl)-6,7-dihydro-5H-cyclopenta[b]pyridin-2-yl]oxy}methyl)pyridine-3-carbonitrile]	0.0106
N#Cc1cccc(COc2cc(-c3ccnc(F)c3)c3c(n2)CCC3)c1 [Example 251, 3-({[4-(2-Fluoropyridin-4-yl)-6,7-dihydro-5H-cyclopenta[b]pyridin-2-yl]oxy}methyl)benzonitrile]	0.0943
N#Cc1ccc(COc2cc(-c3ccnc(F)c3)c3c(n2)CCC3)nc1 [Example 252, 6-({[4-(2-Fluoropyridin-4-yl)-6,7-dihydro-5H-cyclopenta[b]pyridin-2-yl]oxy}methyl)pyridine-3-carbonitrile]	0.0135
N#Cc1cccc(COc2cc(-c3cncc(CO)c3)c3c(n2)CCC3)c1 [Example 253, 3-[({4-[5-(Hydroxymethyl)pyridin-3-yl]-6,7-dihydro-5H-cyclopenta[b]pyridin-2-yl}oxy)methyl]benzonitrile]	0.08
Cc1cc(COc2cc(-c3cncnc3)c3c(n2)CCC3)ccn1 [Example 256, 2-[(2-Methylpyridin-4-yl)methoxy]-4-(pyrimidin-5-yl)-6,7-dihydro-5H-cyclopenta[b]pyridine]	0.0628
N#Cc1ccc(COc2cc(-c3cncnc3)c3c(n2)CCC3)cc1 [Example 258, 4-({[4-(Pyrimidin-5-yl)-6,7-dihydro-5H-cyclopenta[b]pyridin-2-yl]oxy}methyl)benzonitrile]	0.0101
Nc1ncc(-c2cc(OCc3ccccn3)nc3c2CCC3)cn1 [Example 259, 5-[2-(Pyridin-2-ylmethoxy)-6,7-dihydro-5H-cyclopenta[b]pyridin-4-yl]pyrimidin-2-amine hydrochloride]	0.0273
Cc1ncc(-c2cc(OCc3ccc(C#N)cc3)nc3c2CCC3)cn1 [Example 261, 4-({[4-(2-Methylpyrimidin-5-yl)-6,7-dihydro-5H-cyclopenta[b]pyridin-2-yl]oxy}methyl)benzonitrile]	0.064
Cc1cc(COc2cc(-c3cnc(C)nc3)c3c(n2)CCC3)ccn1 [Example 262, 2-[(2-Methylpyridin-4-yl)methoxy]-4-(2-methylpyrimidin-5-yl)-6,7-dihydro-5H-cyclopenta[b]pyridine]	0.082
Nc1ncc(-c2cc(OCc3cccc(F)c3)nc3c2CCC3)cn1 [Example 263, 5-{2-[(3-Fluorobenzyl)oxy]-6,7-dihydro-5H-cyclopenta[b]pyridin-4-yl}pyrimidin-2-amine]	0.111
N#Cc1ccc(COc2cc(-c3cnc(N)nc3)c3c(n2)CCC3)cc1 [Example 264, 4-({[4-(2-Aminopyrimidin-5-yl)-6,7-dihydro-5H-cyclopenta[b]pyridin-2-yl]oxy}methyl)benzonitrile]	0.126
N#Cc1cccc(COc2cc(-c3cnc(N)nc3)c3c(n2)CCC3)c1 [Example 265, 3-({[4-(2-Aminopyrimidin-5-yl)-6,7-dihydro-5H-cyclopenta[b]pyridin-2-yl]oxy}methyl)benzonitrile]	0.0468
